# Reference: article PMC4546618, “Casitas B-Lineage Lymphoma RING Domain Inhibitors Protect Mice against High-Fat Diet-Induced Obesity and Insulin Resistance” (PLoS ONE, 2015)
# *1 amine or outer side, *2 acyl side, *3 side chain or, on linkers, in order; H or OH if unused. Where a SMILES comes first, the peptide text is derived from it. [ ]: non-standard residue; d: D form. Phe(4-NO2) = N[C@@H](Cc1ccc([N+](=O)[O-])cc1)C(=O)O; Phe(4-N3) = [N-]=[N+]=Nc1ccc(C[C@H](N)C(=O)O)cc1; X2 = CC(=O)CN(CCCC[C@H](N[*:1])C(=O)[*:2])C(C)=O; Phe(4-CF3) = N[C@@H](Cc1ccc(C(F)(F)F)cc1)C(=O)O; Pro(trans-4-F) = O=C(O)[C@@H]1C[C@@H](F)CN1; X1 = CC(=O)N(O)CCCC[C@H](N[*:1])C(=O)[*:2]; Phe(4-NH2) = Nc1ccc(C[C@H](N)C(=O)O)cc1; Phe(3-F) = N[C@@H](Cc1cccc(F)c1)C(=O)O; Phe(3-Me) = Cc1cccc(C[C@H](N)C(=O)O)c1; Phe(4-F) = N[C@@H](Cc1ccc(F)cc1)C(=O)O; Phe(4-Me) = Cc1ccc(C[C@H](N)C(=O)O)cc1; Phe(2-F) = N[C@@H](Cc1ccccc1F)C(=O)O; Phe(2-Me) = Cc1ccccc1C[C@H](N)C(=O)O; ΔPro = O=C(O)[C@@H]1C=CCN1; Pip = O=C(O)[C@@H]1CCCCN1; Thz = O=C(O)[C@@H]1CSCN1; Aze = O=C(O)[C@@H]1CCN1
# Target: T1, Cbl (RING) protein (Homo sapiens, UniProt P22681)
# T1 construct: including the linker and RING domain (codon 358–457); GST (Glutathione S-Transferase); made in house
# T1 sequence (P22681 358-457): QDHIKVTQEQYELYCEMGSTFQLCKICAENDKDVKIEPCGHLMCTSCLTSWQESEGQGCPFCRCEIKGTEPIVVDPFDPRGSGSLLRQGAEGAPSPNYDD
# Test: Fluorescence polarization (FP) assay, competition with FITC-βA-PFKPP-NH2 probe
# Assay type: binding
# Details: probe FITC-βA-PFKPP-NH2 100 nmol/L, Cbl (RING) protein 3 μmol/L, PBS pH 7.4
# Method: Peptides and peptide mimetics were purchased from MitenChem (China) with a purity ≥ 98%. Concentrations values of reconstituted peptides were determined by amino acid analysis at the protein core facility (Chengdu Medical College). The recombinant Cbl protein was produced by the Chengdu Medical College Protein Core Facility and was described previously. The c-Cbl (RING) protein, including the linker and RING domain (codon 358–457), was tagged with Glutathione S-Transferase (GST) and purified with GSH-Sepharose (Shanghai Biopharma).
# The FP assay was developed and validated previously. Briefly, fluorescein-labeled probe (FITC-βA-PFKPP-NH2, 100 nmol/L) and Cbl (RING) protein (3 μmol/L) were mixed and diluted to the final concentration using 0.01% Triton X-100 in PBS (pH = 7.4). Then, 19 μl of this master mix was loaded to each reaction well. The peptides or peptide mimetics were then loaded to the designated wells (1 μl, 10 μmol/L– 0.078 μmol/L, half-fold dilutions). The total fluorescence and polarization values were measured at an excitation wavelength of 485 nm and an emission wavelength of 538 nm using a ZS-2 plate reader. The data was fitted, and the ΔmP, Kd, and Ki values were estimated, using SigmaPlot 11.0.
row,SMILES,Ki [µM]
1,"CC(=O)CN(CCCC[C@H](NC(C)=O)C(=O)N1CCC[C@H]1C(=O)N[C@@H](C)C(=O)N[C@H](C(=O)N[C@@H](CCCCN)C(N)=O)[C@@H](C)O)C(C)=O [Peptide 41, Ac-(w)PATK-NH2] (Ac-[X2]PATK-NH2)",96.2 ± 12.6
2,"CC(=O)N1CCC[C@H]1C(=O)N[C@@H](Cc1cccc(F)c1)C(=O)N[C@@H](CCCCN)C(=O)N1CC=C[C@H]1C(=O)N1CCC[C@H]1C(N)=O [Peptide 25, Ac-P(h)K(p)P-NH2] (Ac-P[Phe(3-F)]K[ΔPro]P-NH2)",> 250
3,"CC(=O)N[C@@H](CCCCN)C(=O)N1C[C@H](F)C[C@H]1C(=O)N[C@@H](C)C(=O)N[C@H](C(=O)N[C@@H](CCCCN)C(N)=O)C(C)C [Peptide 58, Ac-K(t)AVK-NH2] (Ac-K[Pro(trans-4-F)]AVK-NH2)",126 ± 3.2
4,"CC(=O)N1CCC[C@H]1C(=O)N[C@@H](Cc1cccc(F)c1)C(=O)N[C@@H](CCCCN)C(=O)N1CC[C@H]1C(=O)N1CCC[C@H]1C(N)=O [Peptide 26, Ac-P(h)K(q)P-NH2] (Ac-P[Phe(3-F)]K[Aze]P-NH2)",> 250
5,"CC(=O)N1CCC[C@H]1C(=O)N[C@@H](Cc1cccc(F)c1)C(=O)N[C@@H](CCCCN)C(=O)N1CCC[C@H]1C(=O)N1CSC[C@H]1C(N)=O [Peptide 20, Ac-P(h)KP(r)-NH2] (Ac-P[Phe(3-F)]KP[Thz]-NH2)",3.7 ± 0.4
6,"CC(=O)N[C@@H](CCCCN)C(=O)N1CCCC[C@H]1C(=O)N[C@@H](C)C(=O)N[C@H](C(=O)N[C@@H](CCCCN)C(N)=O)[C@@H](C)O [Peptide 50, Ac-K(s)ATK-NH2] (Ac-K[Pip]ATK-NH2)",32.6 ± 10.9
7,"CC(=O)N1CCC[C@H]1C(=O)N[C@@H](Cc1cccc(F)c1)C(=O)N[C@@H](CCCCN)C(=O)N1C[C@H](F)C[C@H]1C(=O)N1CCC[C@H]1C(N)=O [Peptide 29, Ac-P(h)K(t)P-NH2] (Ac-P[Phe(3-F)]K[Pro(trans-4-F)]P-NH2)",24.6 ± 5.8
8,"CC(=O)CN(CCCC[C@H](NC(=O)[C@@H](NC(=O)[C@H](C)NC(=O)[C@@H]1CCCN1C(=O)[C@H](CCCCN(O)C(C)=O)NC(C)=O)[C@@H](C)O)C(N)=O)C(C)=O [Peptide 44, Ac-(v)PAT(w)-NH2]",126 ± 22.6
9,"CC(=O)N1CC=C[C@H]1C(=O)N[C@@H](Cc1cccc(F)c1)C(=O)N[C@@H](CCCCN)C(=O)N1CCC[C@H]1C(=O)N1CCC[C@H]1C(N)=O [Peptide 32, Ac-(p) (h)KPP-NH2] (Ac-[ΔPro][Phe(3-F)]KPP-NH2)",> 250
10,"CC(=O)CN(CCCC[C@H](NC(=O)[C@H](Cc1cccc(F)c1)NC(=O)[C@@H]1CSCN1C(C)=O)C(=O)N1CCC[C@H]1C(=O)N1CCC[C@H]1C(N)=O)C(C)=O [Peptide 39, Ac-(r) (h) (w)PP-NH2] (Ac-[Thz][Phe(3-F)][X2]PP-NH2)",28.3 ± 2.8
11,"CC(=O)N(O)CCCC[C@H](NC(=O)[C@H](Cc1cccc(F)c1)NC(=O)[C@@H]1CSCN1C(C)=O)C(=O)N1CCC[C@H]1C(=O)N1CCC[C@H]1C(N)=O [Peptide 38, Ac-(r) (h) (v)PP-NH2] (Ac-[Thz][Phe(3-F)][X1]PP-NH2)",21.6 ± 2.6
12,"CC[C@H](C)[C@H](NC(=O)[C@H](C)NC(=O)[C@@H]1C[C@@H](F)CN1C(=O)[C@H](CCCCN)NC(C)=O)C(=O)N[C@@H](CCCCN)C(N)=O [Peptide 59, Ac-K(t)AIK-NH2] (Ac-K[Pro(trans-4-F)]AIK-NH2)",145 ± 18.3
13,"CC(=O)N1CCC[C@H]1C(=O)N[C@H](Cc1ccccc1)C(=O)N[C@@H](CCCCN)C(=O)N1CCC[C@H]1C(=O)N1CCC[C@H]1C(N)=O [Peptide 16, Ac-P(n)KPP-NH2] (Ac-P[dF]KPP-NH2)",15.4 ± 0.4
14,"CC(=O)N1CCC[C@H]1C(=O)N[C@@H](Cc1ccccc1F)C(=O)N[C@@H](CCCCN)C(=O)N1CCC[C@H]1C(=O)N1CCC[C@H]1C(N)=O [Peptide 9, Ac-P(g)KPP-NH2] (Ac-P[Phe(2-F)]KPP-NH2)",3.5 ± 0.6
15,"CC(=O)CN(CCCC[C@H](NC(=O)[C@@H](NC(=O)[C@H](C)NC(=O)[C@@H]1CCCN1C(=O)[C@H](CCCCN)NC(C)=O)[C@@H](C)O)C(N)=O)C(C)=O [Peptide 43, Ac-KPAT(w)-NH2] (Ac-KPAT[X2]-NH2)",72.6 ± 9.5
16,"CC(=O)N1CCC[C@H]1C(=O)N[C@@H](Cc1ccc(N)cc1)C(=O)N[C@@H](CCCCN)C(=O)N1CCC[C@H]1C(=O)N1CCC[C@H]1C(N)=O [Peptide 12, Ac-P(j)KPP-NH2] (Ac-P[Phe(4-NH2)]KPP-NH2)",4.5 ± 0.8
17,"CC(=O)N[C@@H](CCCCN)C(=O)N1CSC[C@H]1C(=O)N[C@H](C(=O)N[C@H](C(=O)N[C@@H](CCCCN)C(N)=O)[C@@H](C)O)[C@@H](C)O [Peptide 54, Ac-K(r)TTK-NH2] (Ac-K[Thz]TTK-NH2)",201 ± 14.4
18,"CC(=O)N1CCC[C@H]1C(=O)N[C@@H](Cc1ccc(C)cc1)C(=O)N[C@@H](CCCCN)C(=O)N1CCC[C@H]1C(=O)N1CCC[C@H]1C(N)=O [Peptide 8, Ac-P(f)KPP-NH2] (Ac-P[Phe(4-Me)]KPP-NH2)",5.4 ± 2.2
19,"CC(=O)N[C@@H](CCCCN)C(=O)N1CSC[C@H]1C(=O)N[C@@H](CC(C)C)C(=O)N[C@H](C(=O)N[C@@H](CCCCN)C(N)=O)[C@@H](C)O [Peptide 56, Ac-K(r)LTK-NH2] (Ac-K[Thz]LTK-NH2)",226 ± 22.5
20,"CC(=O)N1CC[C@H]1C(=O)N[C@@H](Cc1cccc(F)c1)C(=O)N[C@@H](CCCCN)C(=O)N1CCC[C@H]1C(=O)N1CCC[C@H]1C(N)=O [Peptide 33, Ac-(q) (h)KPP-NH2] (Ac-[Aze][Phe(3-F)]KPP-NH2)",> 250
21,"CC(=O)N[C@@H](CCCCN(O)C(C)=O)C(=O)N1CCC[C@H]1C(=O)N[C@@H](C)C(=O)N[C@H](C(=O)N[C@@H](CCCCN)C(N)=O)[C@@H](C)O [Peptide 40, Ac-(v)PATK-NH2] (Ac-[X1]PATK-NH2)",51.8 ± 0.8
22,"CC(=O)N1CCC[C@H]1C(=O)N[C@@H](Cc1cccc(C)c1)C(=O)N[C@@H](CCCCN)C(=O)N1CCC[C@H]1C(=O)N1CCC[C@H]1C(N)=O [Peptide 7, Ac-P(e)KPP-NH2] (Ac-P[Phe(3-Me)]KPP-NH2)",4.5 ± 1
23,"CC(=O)N1CCC[C@H]1C(=O)N[C@@H](Cc1cccc(F)c1)C(=O)N[C@@H](CCCCN)C(=O)N1CCC[C@H]1C(=O)N1C[C@H](F)C[C@H]1C(N)=O [Peptide 22, Ac-P(h)KP(t)-NH2] (Ac-P[Phe(3-F)]KP[Pro(trans-4-F)]-NH2)",31.2 ± 0.4
24,"CC(=O)N1CCC[C@H]1C(=O)N[C@@H](Cc1ccc(F)cc1)C(=O)N[C@@H](CCCCN)C(=O)N1CCC[C@H]1C(=O)N1CCC[C@H]1C(N)=O [Peptide 11, Ac-P(i)KPP-NH2] (Ac-P[Phe(4-F)]KPP-NH2)",2.4 ± 0.5
25,"CC(=O)N1CCC[C@H]1C(=O)N[C@@H](Cc1ccc([N+](=O)[O-])cc1)C(=O)N[C@@H](CCCCN)C(=O)N1CCC[C@H]1C(=O)N1CCC[C@H]1C(N)=O [Peptide 13, Ac-P(k)KPP-NH2] (Ac-P[Phe(4-NO2)]KPP-NH2)",4.2 ± 0.4
26,"CC(=O)N1CCC[C@H]1C(=O)N[C@@H](Cc1ccc(C(F)(F)F)cc1)C(=O)N[C@@H](CCCCN)C(=O)N1CCC[C@H]1C(=O)N1CCC[C@H]1C(N)=O [Peptide 14, Ac-P(l)KPP-NH2] (Ac-P[Phe(4-CF3)]KPP-NH2)",25.4 ± 0.7
27,"CC(=O)N1CCC[C@H]1C(=O)N[C@@H](Cc1ccccc1C)C(=O)N[C@@H](CCCCN)C(=O)N1CCC[C@H]1C(=O)N1CCC[C@H]1C(N)=O [Peptide 6, Ac-P(d)KPP-NH2] (Ac-P[Phe(2-Me)]KPP-NH2)",10.2 ± 1.5
28,"CC(=O)N1CCC[C@H]1C(=O)N[C@@H](Cc1ccc(N=[N+]=[N-])cc1)C(=O)N[C@@H](CCCCN)C(=O)N1CCC[C@H]1C(=O)N1CCC[C@H]1C(N)=O [Peptide 15, Ac-P(m)KPP-NH2] (Ac-P[Phe(4-N3)]KPP-NH2)",8.4 ± 0.4
29,"CC(=O)N1CCC[C@H]1C(=O)N[C@@H](Cc1cccc(F)c1)C(=O)N[C@@H](CCCCN)C(=O)N1CCCC[C@H]1C(=O)N1CCC[C@H]1C(N)=O [Peptide 28, Ac-P(h)K(s)P-NH2] (Ac-P[Phe(3-F)]K[Pip]P-NH2)",136 ± 11.2
30,"CC(=O)N1CCC[C@H]1C(=O)N[C@@H](Cc1cccc(F)c1)C(=O)N[C@@H](CCCCN)C(=O)N1CCC[C@H]1C(=O)N1CCC[C@@H]1C(N)=O [Peptide 17, Ac-P(h)KP(o)-NH2] (Ac-P[Phe(3-F)]KP[dP]-NH2)",12.5 ± 0.9
